Among the data in ChEMBL document CHEMBL3745675, “Design and optimization of selective azaindole amide M1 positive allosteric modulators” (Bioorg Med Chem Lett, 2016) are Papp values, retold here.

The series in a line: Permeability in RRCK cells. Format: ADME, cell-based, Canis lupus familiaris, MDCKII-LE. The settings on record: dog, MDCK; read-out: permeability.

With `O=C(N[C@H]1CCOC[C@@H]1O)c1cn(Cc2ccc(-c3cc[nH]n3)cc2)c2cccnc12`, the Papp was determined as 14 ×10⁻⁶ cm/s.
